Assays:
[1] = tested on: central nervous system pathologies; conditions: brain edema, cranial trauma, cerebral ischemia, chronic cerebrovascular diseases, Parkinson's disease; cited from earlier work
[2] = cited from earlier work
liver function = conditions: in vivo; cited from earlier work
[3] = tested on: adrenalin-induced myocardial dystrophy; conditions: rat, in vivo; cited from earlier work
isolated dog heart = conditions: cited from earlier work
[4] = tested on: isolated, perfused rat liver; conditions: in a single passage; cited from earlier work
[5] = tested on: isolated rat diaphragm muscle; conditions: cited from earlier work
[6] = in vivo, po
Description: Blood samples (0.5 ml) were withdrawn at intervals of 1, 2, 3, and 4 hours after ingestion of the compound and were processed for subsequent determination of plasma uridine content by HPLC. On a separate day, the same procedure was carried out, except that an equal molar dose (18 mg/kg--1.3 grams in a 70 kilogram subject) of uridine was ingested instead of the acyl derivative.

myocardial glycogen = conditions: cited from earlier work; for myocardial glycogen: intravenous infusion
[7] = tested on: experimentally-induced seizures; conditions: intraperitoneal injection; cited from earlier work
hepatocytes = conditions: cited from earlier work
isolated rat hearts [8] = conditions: cited from earlier work
atrial tissue = conditions: in vitro; cited from earlier work
adipose tissue = conditions: cited from earlier work
isolated rabbit hearts = conditions: cited from earlier work
heart = conditions: cited from earlier work
[9] = cited from earlier work; remark: listed apart in the source
[10] = tested on: skeletal and cardiac muscle; conditions: cited from earlier work
myocardium = conditions: pretreatment; 2 hours after aortic stenosis; cited from earlier work
isolated rat hearts [11] = conditions: reperfusion after low-flow ischemia; cited from earlier work
[12] = tested on: adrenalin-induced myocardial necrosis; conditions: cited from earlier work; for mortality and myocardial function: ECG readings, biochemical findings, relative heart weight
[13] = tested on: tyrosine-alpha-ketoglutarate; conditions: alone or in various combinations; cited from earlier work
brain = conditions: in vivo; cited from earlier work
[14] = tested on: pyrimidine nucleoside phosphorylases; conditions: rat, in vivo; cited from earlier work
isolated rat heart = conditions: cited from earlier work
skeletal muscles = conditions: rat, in vivo; cited from earlier work
[15] = Bioavailability of uridine and acyl uridine derivatives in rats (plasma by HPLC); assay type: in vivo, male F344 rats; conditions: rat, intubation into stomach, 0.28 moles/kg (printed), for at least four hours following ingestion
Description: Silastic catheters were implanted into the right jugular veins of anesthetized male F344 rats (Retired Breeders, 450-500 grams). After three days of recovery from surgery, the animals were placed in deep cylindrical cages, and their catheters were extended with a lengthened polyvinyl tubing, so that blood samples would be withdrawn without disturbing the rats. Basal blood samples were taken and the animals were divided into four groups, each containing four rats.

C[N+](C)(C)CCOP(=O)(O)OP(=O)([O-])OC[C@H]1O[C@@H](n2ccc(N)nc2=O)[C@H](O)[C@@H]1O [CDP-choline, cytidine-diphosphocholine]
therapeutic efficacy [1]: Therapeutic efficacy has been documented | time of breakdown to cytidine and choline ([2]; intravenous injection): ≤ 30 s | intact compound in circulation ([2]; oral): no intact CDP-choline enters the circulation | plasma cytidine and choline concentrations ([2]; oral): rise | degradation following administration ([2]; yielding cytidine, choline, and phosphate): very rapidly degraded

O=C(O)[C@H]1O[C@H](OP(=O)(O)OP(=O)(O)OC[C@H]2O[C@@H](n3ccc(=O)[nH]c3=O)[C@H](O)[C@@H]2O)[C@H](O)[C@@H](O)[C@@H]1O [uridine-diphosphoglucuronic acid]
improvement of liver function (liver function): improve certain aspects of liver function

O=c1ccn([C@@H]2O[C@H](COP(=O)(O)O)[C@@H](O)[C@H]2O)c(=O)[nH]1 [uridine-5'-monophosphate]
protective effect in adrenalin-induced myocardial dystrophy [3]: protective effect

Nc1ncnc2c1ncn2[C@@H]1O[C@H](CO)[C@@H](O)[C@H]1O [adenosine]
inotropic effect (isolated dog heart): negatively inotropic

Nc1nc2c(ncn2[C@@H]2O[C@H](CO)[C@@H](O)[C@H]2O)c(=O)[nH]1 [guanosine]
inotropic effect (isolated dog heart): positive inotropic

O=c1ccn([C@@H]2O[C@H](CO)[C@@H](O)[C@H]2O)c(=O)[nH]1 [uridine]
degradation of infused uridine [4]: more than 90% | glucose uptake [5]: stimulate glucose uptake | glycogen synthesis [5]: only uridine increased glycogen synthesis | plasma uridine level [6]: exceeded 10 micromolar | protective effect in adrenalin-induced myocardial dystrophy [3]: relatively ineffective | inotropic effect (isolated dog heart): positive inotropic | myocardial glycogen (myocardial glycogen): restoration of myocardial glycogen | anticonvulsant effect [7]: strong protection | incorporation of glucose into glycogen (hepatocytes): increase | tissue uridine nucleotide pools (hepatocytes): expanded | rate of incorporation of uridine (isolated rat hearts [8]; following low-flow ischemia): increased twofold | myocardial uracil nucleotide content (isolated rat hearts [8]; perfusion): concentration-dependent elevation | contractability and extensibility of atrial tissue (atrial tissue): restored | lipolysis (adipose tissue): inhibited lipolysis | myocardial performance, glucose uptake, glycolysis, glycogen and adenine nucleotides (isolated rabbit hearts; hypoxic hearts): increased myocardial performance, glucose uptake and glycolysis and also diminished the disappearance of glycogen and adenine nucleotides | glucose uptake, glycolysis, ATP and glycogen levels, myocardial performance (isolated rabbit hearts; propranolol-treated hearts): increased glucose uptake, glycolysis, levels of ATP and glycogen, as well as myocardial performance | supporting myocardial hyperfunction (heart; in vivo): relatively ineffective | myocardial heart-pathology benefit of uridine in intact animals (heart; intact (alive and free-running) animals): no beneficial effect | difference from controls in rats developing hypertrophy of the heart (heart; rat, in vivo): no difference | plasma levels of uridine ([9]; mouse, in vivo, po, 350 mg/kg): not perturbed | elevation of plasma uridine levels ([9]; mouse, in vivo, po, 3500 mg/kg): observed only after oral administration of high doses | time to return of plasma uracil to normal ([9]; oral uridine, 350 mg/kg): 4 h | glucose uptake and glycogen synthesis [10]: enhance glucose uptake and glycogen synthesis | decrease in maximal pressure upon aortic ligation (myocardium): prevented | myocardial ATP levels, total adenine nucleotide content, uridine nucleotide levels, glycogen content (isolated rat hearts [11]): induced restoration

O=c1ccn([C@@H]2O[C@H](COP(=O)(O)OP(=O)(O)O)[C@@H](O)[C@H]2O)c(=O)[nH]1 [uridine diphosphate]
improvement of liver function (liver function): improve certain aspects of liver function

OC[C@H]1O[C@@H](n2cnc3c(O)ncnc32)[C@H](O)[C@@H]1O [inosine]
glucose uptake [5]: stimulate glucose uptake | inotropic effect (isolated dog heart): positive inotropic | lipolysis (adipose tissue): inhibited lipolysis

O=C([O-])c1cc(=O)[nH]c(=O)[nH]1.[K+] [potassium orotate]
mortality and myocardial function [12]: reduced mortality and improved myocardial function | resistance to adrenalin-induced myocardial necrosis ([12]; in vivo): increase the animal's resistance

O=c1ccn([C@@H]2O[C@H](COP(=O)([O-])[O-])[C@@H](O)[C@H]2O)c(=O)[nH]1.[Na+].[Na+] [UMP, Sodium uridine monophosphate]
mortality and myocardial function [12]: reduced mortality and improved myocardial function | prophylactic effect vs potassium orotate ([12]; in vivo): more pronounced prophylactic effect | resistance to adrenalin-induced myocardial necrosis ([12]; in vivo): increase the animal's resistance

C[C@]12CCC(=O)C=C1CC[C@@H]1[C@@H]2[C@@H](O)C[C@@]2(C)[C@H]1CC[C@]2(O)C(=O)CO [hydrocortisone]
tyrosine-alpha-ketoglutarate activity [13]: increase

O=C[C@H](O)[C@@H](O)[C@H](O)[C@H](O)CO [glucose]
contractability and extensibility of atrial tissue (atrial tissue): restored

O=C[C@H](O)[C@H](O)[C@H](O)CO [ribose]
myocardial glycogen (myocardial glycogen): restoration of myocardial glycogen

CC(C)NCC(O)c1ccc(O)c(O)c1 (stereo not shown) [isoproterenol]
cardiac glycogen stores, myocardial UTP and UDP-glucose levels (myocardial glycogen; isoproterenol): depleted cardiac glycogen stores and reduced myocardial UTP and UDP-glucose levels

Nc1ccn([C@@H]2O[C@H](CO)[C@@H](O)[C@H]2O)c(=O)n1 [cytidine]
brain uptake (brain): not very readily taken up by the brain | specific activity of liver homogenates [14]: increased | inotropic effect (isolated dog heart): negatively inotropic | myocardial cytosine nucleotide levels (isolated rat heart; 30 minute supply of cytidine): significantly increased | conversion of cytidine taken up into uridine nucleotides (isolated rat heart): Very little | muscular concentrations of Krebs cycle intermediates (skeletal muscles): affect the muscular concentrations of Krebs cycle intermediates

CC(=O)OC[C@H]1O[C@@H](n2ccc(=O)[nH]c2=O)[C@H](OC(C)=O)[C@@H]1OC(C)=O [TAU, 2',3',5'-tri-O-acetyl uridine]
plasma levels of uridine vs equimolar dose of uridine [15]: significantly higher for at least four hours | plasma level of uridine vs equal molar dose of uridine [6]: substantially higher | plasma uridine level [6]: exceeded 10 micromolar | time uridine levels sustained in the useful therapeutic range [6]: at least four

Cc1cn([C@H]2C[C@H](O)[C@@H](CO)O2)c(=O)[nH]c1=O [thymidine]
inotropic effect (isolated dog heart): positive inotropic
